Common to all, as to type: cell-based
Experiment [1] concerns SAS cells. Kind of experiment: Pulsed-field gel electrophoresis of residual DSB after irradiation. On the procedure:
Next it was sought to test whether TGFβ inhibition would increase alt-EJ in the context of NHEJ inhibition. Here pulsed-field gel electrophoresis was used to measure residual DSB levels in SAS cells at various timepoints after irradiation (20 Gy). NHEJ was blocked by treating cells with the DNA-protein kinase inhibitor KU57788 1 hour before irradiation and TGFβ signaling was blocked 24 hours beforehand with LY36494 pretreatment.

In another experiment the test system is U251 human GBM cell line. Kind of experiment: Quantitative expression assays of alt-EJ genes in U251 cells. To be noted: time course, TGFβ signaling blockade with LY2157299. The source says: The above observations led to the hypothesis that TGFβ suppression of alt-EJ gene expression is a distinct mechanism that influences differential DNA repair pathway use. To test whether this biology is broadly employed beyond HNSC, glioblastoma (GBM) was considered because high TGFβ ligand and receptor expression correlate with poorer survival, and because TGFβ inhibition enhances radiosensitivity in GBM cell lines and primary tumor explants. First, the U251 human GBM cell line was investigated using the NANOSTRING™ panel. As observed in HNSC SAS cells, TGFβ inhibition increased expression of the key alt-EJ genes, LIG1, PARP1, and POLQ in GBM cells. […] U251 reporters (EJ2GFP) were established to evaluate alt-EJ repair.
(§1) Gene expression analyses methods: Total RNA was extracted. Sample RNA (250 ng) was used for the NANOSTRING™ DNA Damage Repair Gene Expression panel, consisting of 180 DDR genes and 12 housekeeping genes for normalization, according to manufacturer's instructions. Hybridization efficiency and background signals were evaluated based on internal positive and negative control probes analyzed using manufacturer's software. Ratio data from 2-3 biological repeats were used for further analysis and graphs.

The test system of experiment [2] is SAS cells. Kind of experiment: NANOSTRING DDR gene panel expression in SAS cells. To be noted: 24 h, TGFβ plus or minus inhibitor. On the procedure: TGFβ regulates expression of DDR genes. To further investigate TGFβ impact on DDR, the expression of DNA repair-associated genes was evaluated using the NANOSTRING™ DDR gene panel. […] According to KEGG pathway analyses, expression of genes implicated in HR and NHEJ was increased by TGFβ and reduced by its inhibition. […] BRCA1 expression was increased by TGFβ and suppressed by LY2157299, as was ABL1 and POLD4. In contrast, TGFβ decreased and LY2157299 inhibition increased expression of LIG1, PARP1, and POLQ, which are key genes involved in alt-EJ.
as §1

As for `c1ccc(-c2[nH]ncc2-c2ccnc3ccccc23)nc1` [LY36494], the “rescue of KU57788-inhibited repair of radiation induced DSB” value in the experiment on SAS cells [1] (LY36494 pretreatment 24 hours beforehand, with KU57788, 20 Gy) is on record as “partially rescued”.
As to `O=c1cc(N2CCOCC2)oc2c(-c3cccc4c3sc3ccccc34)cccc12` [KU57788], the “repair of radiation induced DSB” value in the experiment on SAS cells [1] (KU57788 1 hour before irradiation (20 Gy)) was “significantly inhibited”.
In the case of `Cc1cccc(-c2nn3c(c2-c2ccnc4ccc(C(N)=O)cc24)CCC3)n1` [LY2157299], in the experiment with U251 human GBM cell line, the “expression of LIG1, PARP1, and POLQ” value is “increased”. In the experiment on SAS cells [2], the “BRCA1 expression (as was ABL1 and POLD4)” value was “suppressed”; the “TGFβ induction of CDKNJA” value is recorded as “blocked”; the “expression of LIG1, PARP1, and POLQ” value is listed as “increased”.
